Columns and labels:
Assay type in all cases: functional
Fusarium oxysporum [1] = assay: Antifungal activity against Fusarium oxysporum f. sp. lupini at 20 ug/ml after 48 hrs
Fusarium oxysporum [2] = assay: Antifungal activity against Fusarium oxysporum f. sp. lupini at 20 ug/ml after 96 hrs
Fusarium oxysporum [3] = assay: Antifungal activity against Fusarium oxysporum f. sp. lupini at 20 ug/ml after 144 hrs
Fusarium oxysporum [4] = assay: Antifungal activity against Fusarium oxysporum f. sp. lupini at 20 ug/ml after 192 hrs
Fusarium oxysporum [5] = assay: Antifungal activity against Fusarium oxysporum f. sp. lupini at 20 ug/ml after 192 hrs relative to control; conditions: read-out: GI
Fusarium oxysporum [6] = assay: Antifungal activity against Fusarium oxysporum f. sp. lupini at 1 ug/ml after 48 hrs
Fusarium oxysporum [7] = assay: Antifungal activity against Fusarium oxysporum f. sp. lupini at 1 ug/ml after 96 hrs
Fusarium oxysporum [8] = assay: Antifungal activity against Fusarium oxysporum f. sp. lupini at 1 ug/ml after 144 hrs
Fusarium oxysporum [9] = assay: Antifungal activity against Fusarium oxysporum f. sp. lupini at 1 ug/ml after 192 hrs
Fusarium oxysporum [10] = assay: Antifungal activity against Fusarium oxysporum f. sp. lupini at 1 ug/ml after 192 hrs relative to control; conditions: read-out: GI
Fusarium oxysporum [11] = assay: Antifungal activity against Fusarium oxysporum f. sp. lupini at 0.5 ug/ml after 48 hrs
Fusarium oxysporum [12] = assay: Antifungal activity against Fusarium oxysporum f. sp. lupini at 0.5 ug/ml after 96 hrs
Fusarium oxysporum [13] = assay: Antifungal activity against Fusarium oxysporum f. sp. lupini at 0.5 ug/ml after 144 hrs
Fusarium oxysporum [14] = assay: Antifungal activity against Fusarium oxysporum f. sp. lupini at 0.5 ug/ml after 192 hrs
Fusarium oxysporum [15] = assay: Antifungal activity against Fusarium oxysporum f. sp. lupini at 0.5 ug/ml after 192 hrs relative to control; conditions: read-out: GI
Fusarium oxysporum [16] = assay: Antifungal activity against Fusarium oxysporum f. sp. lupini at 0.1 ug/ml after 48 hrs
Fusarium oxysporum [17] = assay: Antifungal activity against Fusarium oxysporum f. sp. lupini at 0.1 ug/ml after 96 hrs
Fusarium oxysporum [18] = assay: Antifungal activity against Fusarium oxysporum f. sp. lupini at 0.1 ug/ml after 144 hrs
Fusarium oxysporum [19] = assay: Antifungal activity against Fusarium oxysporum f. sp. lupini at 0.1 ug/ml after 192 hrs
Fusarium oxysporum [20] = assay: Antifungal activity against Fusarium oxysporum f. sp. lupini at 0.1 ug/ml after 192 hrs relative to control; conditions: read-out: GI

| SMILES | Radial growth inhibition of fungi (Ā) (mm) (Fusarium oxysporum [1]) | Radial growth inhibition of fungi (Ā) (mm) (Fusarium oxysporum [2]) | Radial growth inhibition of fungi (Ā) (mm) (Fusarium oxysporum [3]) | Radial growth inhibition of fungi (Ā) (mm) (Fusarium oxysporum [4]) | inhibition of growth at 20 µg/mL (Fusarium oxysporum [5]) | Radial growth inhibition of fungi (Ā) (mm) (Fusarium oxysporum [6]) | Radial growth inhibition of fungi (Ā) (mm) (Fusarium oxysporum [7]) | Radial growth inhibition of fungi (Ā) (mm) (Fusarium oxysporum [8]) | Radial growth inhibition of fungi (Ā) (mm) (Fusarium oxysporum [9]) | inhibition of growth at 1 µg/mL (Fusarium oxysporum [10]) | Radial growth inhibition of fungi (Ā) (mm) (Fusarium oxysporum [11]) | Radial growth inhibition of fungi (Ā) (mm) (Fusarium oxysporum [12]) | Radial growth inhibition of fungi (Ā) (mm) (Fusarium oxysporum [13]) | Radial growth inhibition of fungi (Ā) (mm) (Fusarium oxysporum [14]) | inhibition of growth at 0.5 µg/mL (Fusarium oxysporum [15]) | Radial growth inhibition of fungi (Ā) (mm) (Fusarium oxysporum [16]) | Radial growth inhibition of fungi (Ā) (mm) (Fusarium oxysporum [17]) | Radial growth inhibition of fungi (Ā) (mm) (Fusarium oxysporum [18]) | Radial growth inhibition of fungi (Ā) (mm) (Fusarium oxysporum [19]) | inhibition of growth at 0.1 µg/mL (Fusarium oxysporum [20]) |
| --- | --- | --- | --- | --- | --- | --- | --- | --- | --- | --- | --- | --- | --- | --- | --- | --- | --- | --- | --- | --- |
| Cc1cc2c(c(O)c1-c1c(C)cc3c(c1O)/C(=C/NCCCN1CCCC1=O)C(=O)C(O)=C3C(C)C)/C(=C/NCCCN1CCCC1=O)C(=O)C(O)=C2C(C)C | 19.5 mm | 31.88 mm | 45.88 mm | 58.88 mm | 0.6% | 19.75 mm | 32.13 mm | 46.13 mm | 59.25 mm | 0% |  |  |  |  |  |  |  |  |  |  |
| CCOC(=O)N1CCC(N/C=C2\C(=O)C(O)=C(C(C)C)c3cc(C)c(-c4c(C)cc5c(c4O)/C(=C/NC4CCN(C(=O)OCC)CC4)C(=O)C(O)=C5C(C)C)c(O)c32)CC1 | 19.63 mm | 32.13 mm | 46 mm | 59 mm | 0.4% | 19.88 mm | 32.25 mm | 46.25 mm | 59.25 mm | 0% |  |  |  |  |  |  |  |  |  |  |
| C=CCN/C=C1\C(=O)C(O)=C(C(C)C)c2cc(C)c(-c3c(C)cc4c(c3O)/C(=C/NCC=C)C(=O)C(O)=C4C(C)C)c(O)c21 | 14.63 mm | 24.75 mm | 34.63 mm | 45.88 mm | 22.6% | 17.13 mm | 26 mm | 36.63 mm | 47 mm | 20.7% | 18.13 mm | 27.25 mm | 38.88 mm | 50 mm | 15.6% | 19.25 mm | 29.88 mm | 41.63 mm | 53.75 mm | 9.3% |
| Cc1cc2c(c(O)c1-c1c(C)cc3c(C(C)C)c(O)c(O)c(/C=N/N4CCN(C)CC4)c3c1O)C(/C=N/N1CCN(C)CC1)C(=O)C(O)=C2C(C)C (stereo not given) | 19.25 mm | 31.63 mm | 45.75 mm | 58.5 mm | 1.3% | 19.38 mm | 31.88 mm | 45.75 mm | 58.75 mm | 0.8% |  |  |  |  |  |  |  |  |  |  |
| Cc1cc2c(c(O)c1-c1c(C)cc3c(c1O)/C(=C/NCCCN1CCOCC1)C(=O)C(O)=C3C(C)C)/C(=C/NCCCN1CCOCC1)C(=O)C(O)=C2C(C)C | 19.25 mm | 31.63 mm | 45.63 mm | 58.63 mm | 1% | 19.5 mm | 31.88 mm | 45.88 mm | 59 mm | 0.4% |  |  |  |  |  |  |  |  |  |  |
| Cc1cc2c(c(O)c1-c1c(C)cc3c(C(C)C)c(O)c(O)c(/C=N/N4CCN(CCO)CC4)c3c1O)C(/C=N/N1CCN(CCO)CC1)C(=O)C(O)=C2C(C)C (stereo not given) | 19.5 mm | 31.5 mm | 45.38 mm | 58.25 mm | 1.7% | 19.63 mm | 32 mm | 45.5 mm | 58.5 mm | 1.3% |  |  |  |  |  |  |  |  |  |  |
| Cc1cc2c(C(C)C)c(O)c(O)c(C=O)c2c(O)c1-c1c(C)cc2c(C(C)C)c(O)c(O)c(C=O)c2c1O [GOSSYPOL] | 14.88 mm | 25.25 mm | 35 mm | 46 mm | 22.4% | 17.25 mm | 26.25 mm | 36.75 mm | 47.25 mm | 20.3% | 18.63 mm | 27.88 mm | 39.5 mm | 50.5 mm | 14.8% | 19.63 mm | 30.63 mm | 42.75 mm | 55 mm | 7.2% |
| COCCOC(C/N=C/c1c(O)c(O)c(C(C)C)c2cc(C)c(-c3c(C)cc4c(c3O)C(/C=N/CC(OCCOC)OCCOC)C(=O)C(O)=C4C(C)C)c(O)c12)OCCOC (stereo not given) | 19.63 mm | 31.63 mm | 45.5 mm | 58.38 mm | 1.5% | 19.75 mm | 32.13 mm | 45.63 mm | 58.63 mm | 1% |  |  |  |  |  |  |  |  |  |  |
| Cc1cc2c(c(O)c1-c1c(C)cc3c(c1O)/C(=C/NCCc1cccs1)C(=O)C(O)=C3C(C)C)/C(=C/NCCc1cccs1)C(=O)C(O)=C2C(C)C | 19.38 mm | 31.75 mm | 45.75 mm | 58.75 mm | 0.8% | 19.63 mm | 32 mm | 46 mm | 59.13 mm | 0.2% |  |  |  |  |  |  |  |  |  |  |
| COCC/N=C/c1c(O)c(O)c(C(C)C)c2cc(C)c(-c3c(C)cc4c(c3O)C(/C=N/CCOC)C(=O)C(O)=C4C(C)C)c(O)c12 (stereo not given) | 19.5 mm | 31.88 mm | 45.88 mm | 58.88 mm | 0.6% | 19.75 mm | 32.13 mm | 46.13 mm | 59 mm | 0.4% |  |  |  |  |  |  |  |  |  |  |

Reference: ChEMBL document CHEMBL1158404, “Antifungal activity of alkyl and heterocyclic aza-derivatives of gossypol as well as their complexes with NaClO4 against Fusarium oxysporum f. sp. lupini” (2009)
